From patent US4401667A, “Cephalosporins” (Karl Thomae Gesellschaft mit beschrankter Haftung, priority 1980, dated 1983) come the findings set out here.

≈ marks a conversion by molar mass, not a printed value. Where two headings read alike, the source gives them in different places.

In assay [1] the test system is E. coli R+TEM (β-lactamase carrier). The assay can be described thus: serial dilution test in the microtiter system (MIC). In kind it is cell-based. The note with it: Escherichia coli. The procedure:
(§1) The tests were performed using the serial dilution test in the microtiter system. […] The nutrient medium consisted of 10 gm of peptone, 8 gm of meat extract oxoid, 3 gm of sodium chloride, and 2 gm of sec. sodium phosphate diluted with distilled water to 100 ml (pH 7.2-7.4). The age of the primary cultures was approximately 20 hours. The standardization of the bacteria suspension was effected using a photometer according to the method of Eppendorf (test tube .phi. 14 mm, filter 546 nm), using for comparison a barium sulfate suspension formed by the addition of 3.0 ml of 1% barium chloride solution to 97 ml of 1% sulfuric acid. After standardization, the test microorganisms were further diluted to a concentration of 1:1500, using a sodium chloride solution.
(§2) 16 mgm of the particular test compound were put into a 10 ml measuring flask, and the flask was subsequently filled to the mark with the solvent. The further dilution series was standardized with distilled water or the appropriate solvent.
(§3) The depressions of the microtiter plates were filled with 0.2 ml of nutrient medium. 0.01 ml of the appropriate test compound solution was then added, followed by inoculation with 0.01 ml (1 drop) of the standardized bacteria suspension. The bacteria were incubated at 37° C. for 18 to 20 hours. Control tests using only the solvent were carried out simultaneously.
(§4) The readings were made macroscopically to determine the minimum inhibitory concentration (the lowest still bacteriostatically effective concentration).
(§5) The following test organisms were used:
(§6) Staphylococcus aureus SG 511, Escherichia coli ATCC 11 775, Pseudomonas aeruginosa hamburgensis and Pseudomonas aeruginosa BC 19, Serratia marcescens ATCC 13 880, Klebsiella pneumoniae ATCC 10 031 and BC 6, Proteus mirabilis BC 17, Proteus rettgeri BC 7, Enterobacter Cloaceae ATCC 13047 and E. coli R+TEM (β-lactamase carrier).

For assay [2], the system named is Escherichia coli ATCC 11 775. The assay is described as above. The note with it: E. coli ATCC 11775, 37° C., 18 to 20 hours. The class given is cell-based. As to the method:
as §1, §2, §3, §4, §5, §6

Assay [3] relates to Serratia marcescens ATCC 13 880. The description is as above. The class given is cell-based. The note with it: Serr. marcesc. ATCC 13880, 37° C., 18 to 20 hours. As to the method: as §1, §2, §3, §4, §5, §6
Assay [4] has as its system Pseudomonas aeruginosa hamburgensis. The assay is described as above. In kind it is cell-based. The procedure: as §1, §2, §3, §4, §5, §6
Assay [5] relates to Klebsiella pneumoniae BC 6. The description is as above. In kind it is cell-based. The procedure:
as §1, §2, §3, §4, §5, §6

For assay [6], the system named is Staphylococcus aureus SG 511. The description is as above. The class given is cell-based. The note with it: SG511, Staph. aureus SG 511, 37° C., 18 to 20 hours. The procedure: as §1, §2, §3, §4, §5, §6
Assay [7] deals with Pseudomonas aeruginosa BC 19. The description is as above. In kind it is cell-based. The procedure: as §1, §2, §3, §4, §5, §6
The test system of assay [8] is Klebsiella pneumoniae ATCC 10 031. The assay is described as above. In kind it is cell-based. The note with it: Kl. pneum. ATCC 10031, 37° C., 18 to 20 hours. The procedure: as §1, §2, §3, §4, §5, §6
The test system of another assay is Proteus mirabilis BC 17. The description is as above. In kind it is cell-based. The note with it: BC17, Prot. mirab. BC 17, 37° C., 18 to 20 hours. As to the method:
as §1, §2, §3, §4, §5, §6

The test system of a further assay is Proteus rettgeri BC 7. Described as above. In kind it is cell-based. The note with it: Providencia rettgeri, BC7; Prot. rettg.; 37° C., 18 to 20 hours. As to the method: as §1, §2, §3, §4, §5, §6
Assay [9] has as its system Enterobacter Cloaceae ATCC 13047. The description is as above. In kind it is cell-based. The note with it: Ent. cloacae ATCC 13047; 37° C., 18 to 20 hours. The procedure:
as §1, §2, §3, §4, §5, §6

For another assay, the system named is E. coli ATCC 11 775. The experiment in a line: experimental E. coli infection in mice. In kind it is in vivo, mice (female, NMRI strain). The note with it: Escherichia coli, ATCC11, sc, 168 h, s.c. administration, once 1 hour after intraperitoneal infection, observation 7 days, read-out: ED50 (dose at which 50% of the animals survive). As to the method: Test compounds A-D of the invention and cefuroxim were tested in vivo against experimental infections in mice. E.coli ATCC 11 775 was used as the pathogenic bacteria. An intraperitoneal infection was induced with 0.2 ml of a 5% mucin suspension of the bacteria. This corresponds to approximately 1.4×10^6 E. coli bacteria per mouse. […] The treatment was applied once (1 hour after infection). The observation period was 7 days.

[10] abbreviates: BC6, Kl. pneum. BC 6, 37° C., 18 to 20 hours, read-out: MIC.
The mark [11] stands for this setting: Pseud. Hbg., 37° C., 18 to 20 hours, read-out: MIC.
Where [12] appears, read: BC19, Pseud. BC 19, 37° C., 18 to 20 hours, read-out: MIC.

In general, MIC refers to the lowest concentration that inhibits growth of the organism. The ED50 is the dose at which the effect has come halfway, by size or by number of responders. For `O=C(Nc1cnc(NCc2cccnc2)nc1O)N[C@@H](C(=O)N[C@@H]1C(=O)N2C(C(=O)O)=C(CSc3nnnn3CCO)CS[C@H]12)c1ccc(O)cc1` [A, Sodium 7β-{D-α-[3-(4-hydroxy-2-(3'-pyridylmethylamino)-5-pyrimidinyl)-ureido]-p-hydroxyphenylacetamido}-3-{[1-(2'-hydroxyethyl)-tetrazol-5-yl]-thiomethyl}-ceph-3-em-4-carboxylate], the MIC in assay [1] was 8 µg/mL; in assay [2], 0.12 µg/mL; in [3], 0.25 µg/mL; in [4] it was 8 µg/mL; in [5] (setting [10]) it was 0.5 µg/mL; in assay [6], 1 µg/mL. Besides, the MIC in assay [7] (BC19) stood at 4 µg/mL; in assay [8] it was 0.25 µg/mL; against Proteus mirabilis BC 17 it was 0.12 µg/mL; in the assay on Proteus rettgeri BC 7 it was 0.5 µg/mL; in assay [9], 0.5 µg/mL. Moreover, the ED50 with E. coli ATCC 11 775 was 0.9 mg/kg.

With `NS(=O)(=O)c1ccc(CNc2ncc(NC(=O)N[C@@H](C(=O)N[C@@H]3C(=O)N4C(C(=O)O)=C(CSc5nnnn5CCO)CS[C@H]34)c3ccc(O)cc3)c(O)n2)s1` [B], the MIC was found to be 4 µg/mL (≈ 4.79 µM) in [1]; 0.06 µg/mL (≈ 0.0719 µM) in assay [2]; 0.25 µg/mL (≈ 0.299 µM) in assay [3]; 4 µg/mL (≈ 4.79 µM) in assay [4] (setting [11]); 0.25 µg/mL (≈ 0.299 µM) in [5] (setting [10]); 1 µg/mL (≈ 1.2 µM) in assay [6]. Also, the MIC was 2 µg/mL (≈ 2.4 µM) in [7] (BC19); 0.12 µg/mL (≈ 0.144 µM) in assay [8]; 0.12 µg/mL (≈ 0.144 µM) against Proteus mirabilis BC 17; 0.25 µg/mL (≈ 0.299 µM) in the assay with Proteus rettgeri BC 7; 0.25 µg/mL (≈ 0.299 µM) in assay [9]. In the assay with E. coli ATCC 11 775, the ED50 was 0.4 mg/kg.

Take `NC(=O)CCn1nnnc1SCC1=C(C(=O)O)N2C(=O)[C@@H](NC(=O)[C@H](NC(=O)Nc3cnc(NCc4ccc(S(N)(=O)=O)s4)nc3O)c3ccc(O)cc3)[C@H]2SC1` [C, Sodium 7β-{D-α-[3-(2-(5'-aminosulfonyl-2'-thienylmethylamino)-4-hydroxy-5-pyrimidinyl)-ureido]-p-hydroxyphenylacetamido}-3-{[1-(2'-aminocarbonylethyl)-tetrazol-5-yl]-thiomethyl}ceph-3-em-4-carboxylate]: the MIC in assay [1] worked out at 4 µg/mL; in [2], 0.12 µg/mL; in assay [3] it was 0.5 µg/mL; in assay [4] (setting [11]) it was 4 µg/mL; in [5] (setting [10]), 0.25 µg/mL; in [6] it was 1 µg/mL. In addition, the MIC in [7] (setting [12]) is 4 µg/mL; in assay [8], 0.25 µg/mL; in the assay with Proteus mirabilis BC 17 it was 0.25 µg/mL; with Proteus rettgeri BC 7, 0.5 µg/mL; in [9], 0.25 µg/mL. Besides, the ED50 with E. coli ATCC 11 775 came to 0.7 mg/kg.

Turning to `CO/N=C(\C(=O)N[C@@H]1C(=O)N2C(C(=O)O)=C(COC(N)=O)CS[C@H]12)c1ccco1` [Cefuroxim, cefuroxim, reference compound], the MIC came to 4 µg/mL (≈ 9.43 µM) in [1]; 8 µg/mL (≈ 18.9 µM) in [2]; 8 µg/mL (≈ 18.9 µM) in [3]; 4 µg/mL (≈ 9.43 µM) in assay [5] (BC6); 1 µg/mL (≈ 2.36 µM) in assay [6]; 2 µg/mL (≈ 4.71 µM) in assay [8]. Further, the MIC with Proteus mirabilis BC 17 stood at 0.5 µg/mL (≈ 1.18 µM); against Proteus rettgeri BC 7, 2 µg/mL (≈ 4.71 µM); in assay [9], 32 µg/mL (≈ 75.4 µM). Also, the ED50 in the assay on E. coli ATCC 11 775 was > 100 mg/kg.

Take `CS(=O)(=O)CCn1nnnc1SCC1=C(C(=O)O)N2C(=O)[C@@H](NC(=O)[C@H](NC(=O)Nc3cnc(NCc4ccco4)nc3O)c3ccc(O)cc3)[C@H]2SC1` [D, Sodium 7β-{D-α-[3-(2-(2'-furylmethylamino)-4-hydroxy-5-pyrimidinyl)-ureido]-p-hydroxyphenylacetamido}-3-{[1-(2'-methylsulfonylethyl)tetrazol-5-yl]-thiomethyl}-ceph-3-em-4-carboxylate]: the MIC in [1] came to 8 µg/mL; in assay [2], 0.25 µg/mL; in assay [3], 0.5 µg/mL; in assay [4] (setting [11]), 8 µg/mL; in [5] (setting [10]) it was 0.5 µg/mL; in assay [6] it was 0.5 µg/mL. Also, the MIC is 8 µg/mL in assay [7] (setting [12]); 0.25 µg/mL in [8]; 0.25 µg/mL in the assay with Proteus mirabilis BC 17; 1 µg/mL against Proteus rettgeri BC 7; 0.5 µg/mL in assay [9]. Besides, the ED50 in the assay on E. coli ATCC 11 775 fell in the range of 1 to 2 mg/kg.
